Measurements: patent US20120065267A1, “COMPOSITIONS INCLUDING 3,5-L-T2 AND METHODS OF USE THEREOF” (priority 2010, published 2012)
Where “and” joins values, the source holds several entries; their conditions need not be identical. Identical values can stand only once.

Tested on: C57, LDLr+/− and LDLr0 mice
Experiment: Serum cholesterol in mice on Western Diet given daily oral T2
Type: in vivo
Design: Cholesterol / Cholesterol (Ave): unit not given here
Settings: for lowered cholesterol, average: vs vehicle; for Cholesterol (Ave): group average; for Cholesterol: individual animal
Method: This corresponds to a dosage for an 80 kg human of about 20-200 mg/day, or a low dose of about 0.2-0.3 mg/kg of body weight to a high dose of about 2-3 mg/kg of body weight. One will appreciate, however, that some subjects (e.g., subjects having very low LDL receptor function) may receive higher doses, depending on need. likewise, some subjects may receive lower doses, which again depends on need. Mice in the study were fed a standard lab chow referred to as the “Western Diet.” The overall level of fat and the saturated nature of the fat are representative diets typical in the industrialized west that are linked to risk of cardiovascular disease in humans. The formula is used primarily with genetically manipulated rodent models that are susceptible to high cholesterol and cardiovascular disease. The diet may also be useful in diet-induced obesity, diabetes, and metabolic syndrome models. High cholesterol, obesity, and diabetes are each associated increased risk for cardiovascular disease. The composition of the Western Diet is shown below. C57 is a wild-type strain, LDLr+/− are a strain carrying one functional copy of the LDLr gene, and the LDLr0 animals are total LDLr knockouts. The LDLr gene encodes for the LDL receptor protein, which is responsible for scavenging LDL with bound cholesterol from the blood and transporting it into cells. Both heterozygous and homozygous LDLr knockout animals develop very high serum cholesterol levels and are considered to be a good model for heterozygous and homozygous familial hypercholesterolemia in humans. […] LDLr knockout animals have zero LDL receptor function.

For `N[C@@H](Cc1cc(I)c(Oc2ccc(O)cc2)c(I)c1)C(=O)O` [T2, (2S)-2-amino-3-[4-(4-hydroxyphenoxy)-3,5-diiodophenyl]propanoic acid], the “lowered cholesterol, average” value (C57 animals, high dose T2 2.5 mg/kg daily oral) was “about 67%”, the “lowered cholesterol, average” value (C57 animals, low dose T2 0.25 mg/kg daily oral) was “about 38%” and the “Cholesterol (Ave)” value (C57 mice, 1 Week High Dose, T2 2.5 mg/kg daily oral) was 60.8. For the same molecule, the Cholesterol (C57 mice, 1 Week High Dose, T2 2.5 mg/kg daily oral, 2.5 mg/kg) was 41.312 and 53.718 and 75.711 and 62.741 and 70.636, the “Cholesterol (Ave)” value (C57 mice, 1 Week Low Dose, T2 0.25 mg/kg daily oral) was 113.5 and the Cholesterol (C57 mice, 1 Week Low Dose, T2 0.25 mg/kg daily oral, 0.25 mg/kg) was 96.130 and 114.249 and 104.366 and 114.798 and 137.858. For the same molecule, the “Cholesterol (Ave)” value (LDLr0 mice (first group), 1 Week High Dose, T2 2.5 mg/kg daily oral) was 320.4, the Cholesterol (LDLr0 mice (first group), 1 Week High Dose, T2 2.5 mg/kg daily oral, 2.5 mg/kg) was 303.529 and 337.364 and the “Cholesterol (Ave)” value (LDLr0 mice (first group), 1 Week Low Dose, T2 0.25 mg/kg daily oral) was 823.5. The Cholesterol (LDLr0 mice (first group), 1 Week Low Dose, T2 0.25 mg/kg daily oral, 0.25 mg/kg) was 1063.848 and 593.252 and 813.532, the “Cholesterol (Ave)” value (LDLr0 mice (second group), 1 Week Low Dose, T2 0.25 mg/kg daily oral) was 930.5 and the Cholesterol (LDLr0 mice (second group), 1 Week Low Dose, T2 0.25 mg/kg daily oral, 0.25 mg/kg) was 611.760 and 750.720 and 813.250 and 1112.010 and 1167.590 and 438.070 and 1000.840 and 1549.720. The “Cholesterol (Ave)” value (LDLr0 mice (second group), 2 Week Low Dose, T2 0.25 mg/kg daily oral) was 1026.8, the Cholesterol (LDLr0 mice (second group), 2 Week Low Dose, T2 0.25 mg/kg daily oral, 0.25 mg/kg) was 996.905 and 1035.325 and 944.755 and 988.670 and 1092.965 and 524.830 and 1189.025 and 1441.530 and the “lowered cholesterol, average” value (LDLr knockout animals, high dose T2 2.5 mg/kg daily oral) was “about 80%”. For the same molecule, the “lowered cholesterol, average” value (LDLr knockout animals, low dose T2 0.25 mg/kg daily oral) was “about 46%”, the “lowered cholesterol, average” value (LDLr+/− animals, high dose T2 2.5 mg/kg daily oral) was “about 67%” and the “lowered cholesterol, average” value (LDLr+/− animals, low dose T2 0.25 mg/kg daily oral) was “about 26%”. The “Cholesterol (Ave)” value (LDLr+/− mice, 1 Week High Dose, T2 2.5 mg/kg daily oral) was 93.8, the Cholesterol (LDLr+/− mice, 1 Week High Dose, T2 2.5 mg/kg daily oral, 2.5 mg/kg) was 84.169 and 99.395 and 103.342 and 102.778 and 66.124 and 107.29 and the “Cholesterol (Ave)” value (LDLr+/− mice, 1 Week Low Dose, T2 0.25 mg/kg daily oral) was 188.8. For the same molecule, the Cholesterol (LDLr+/− mice, 1 Week Low Dose, T2 0.25 mg/kg daily oral, 0.25 mg/kg) was 185.075 and 229.548 and 196.605 and 160.917 and 172.447 and 188.370.
